In ChEMBL document CHEMBL1138756, “Entry into a new class of potent proteasome inhibitors having high antiproliferative activity by structure-based design” (J Med Chem, 2004):

Experiments:
[1] = system: Proteasome; experiment: Inhibition of post glutamyl l-peptide (PGPH) proteolytic activity of purified human proteasome
[2] = system: Proteasome; experiment: Inhibition of chymotrypsin-like proteolytic activity of purified human proteasome; format: subcellular
[3] = system: Proteasome; experiment: Inhibition of trypsin-like proteolytic activity of purified human proteasome; format: subcellular
[4] = system: Proteasome; experiment: Inhibition of chymotrypsin-like proteolytic activity of purified human proteasome in cultured MDA-MB 435 Cells; format: subcellular
[5] = system: MDA-MB-435; experiment: Inhibition of MDA-MB 435 cell proliferation; format: functional, cell-based; conditions: Homo sapiens

Structure (SMILES)	IC50 [1] [nM]	IC50 [2] [nM]	IC50 [3] [nM]	IC50 [4] [nM]	IC50 [5] [nM]
COc1ccc(CNC(=O)[C@@H](NC(=O)[C@H](Cc2cc(OC)c(OC)c(OC)c2)NC(=O)Cc2cccc(Oc3ccccc3)c2)C(C)C)c(O)c1	> 20000	10	> 20000	20	60
COc1ccc(CNC(=O)[C@@H](NC(=O)[C@H](Cc2ccc(OC)c(OC)c2)NC(=O)Cc2ccccc2)C(C)C)c(O)c1	–	1000	–	–	–
COc1ccc(CNC(=O)[C@@H](NC(=O)[C@H](Cc2ccc(OC)c(OC)c2)NC(=O)Cc2cccc(Oc3ccccc3)c2)C(C)C)c(O)c1	> 20000	60	> 20000	–	900
COc1ccc(CN[C@@H](C(=O)N[C@H](C(=O)NCc2ccc(OC)cc2O)C(C)C)[C@H](O)[C@H](Cc2ccccc2)NC(=O)[C@@H](NC(=O)OCc2ccccc2)C(C)(C)C)cc1	> 20000	900	> 20000	–	–
COc1ccc(CNC(=O)[C@@H](NC(=O)[C@H](NCc2cc(OC)c(OC)c(OC)c2)[C@H](O)[C@H](Cc2ccccc2)NC(=O)[C@@H](NC(=O)Cc2cccc3ccccc23)C(C)(C)C)C(C)C)c(O)c1	> 20000	7	> 20000	–	1500
